Entries after “also recorded” stand apart in the source; their conditions may differ.
Columns and labels:
[1] = tested on: p53 target genes in 32D-CM cells; test: qRT-PCR of p53 target genes in 32D-CM cells; format: cell-based; conditions: 10 μM, 16 h
[2] = tested on: p53 target genes in normal CD34^+ cells; test: qRT-PCR of p53 target genes in normal CD34+ cells; format: cell-based, human; conditions: similar treatment
From the text: FIGS. 5A-5G. […] FIG. 5A: Relative expression level of HDAC8 in normal (NL) PBSC (n=7) or inv(16)^+ AML (n=7) CD34^+ cells determined by qRT-PCR. Levels of HDAC8 expression were normalized to levels of ACTB in each sample. Dashed line indicates the average of all NL PBSC samples (set to an arbitrary value of 1). […] Each dot represents an individual subject and lines indicate mean±SEM. * P<0.05; ** P<0.01; *** P<0.001. […] Each dot represents an individual patient and lines indicate mean±SEM. * P<0.05; ** P<0.01; *** P<0.001. […] Levels of β-actin were detected as loading control. Shown are representative results from four patients. […] Each dot represents an individual subject and lines indicate mean±SEM. Dash line indicates levels in vehicle treated cells. * P<0.05; ** P<0.01; *** P<0.001. […] Each dot represents an individual patient and lines indicate mean±SEM.

A549 cells = test: Cytotoxicity / anti-proliferative activity in A549 lung cancer cells; conditions: result in words
[3] = tested on: normal HSCs (CB CD34^+ cells); test: Engraftment of normal CB CD34+ cells treated ex vivo into NSG mice; conditions: 10 μM 48 h ex vivo, 16 weeks
From the text: FIGS. 18A-18F. […] Shown are engraftment levels of each population (CD45+, CD34+, CD33+, CD14+, CD15+) in the bone marrow and spleen weight at 16 weeks after transplantation. […] FIGS. 18A-18F (in order): CD45+, CD34+, CD33+, CD14+, CD15+, and spleen.
AML is maintained by LSCs that are relatively resistant to chemotherapy and can persist as potential sources of relapse. Even though AML with CBF translocations are considered to have favorable prognosis, the incidence of relapse is still 25-58% with chemotherapy.

In the case of COc1ccc(/C=C/C(=O)NO)c(-c2ccc(-c3ccccc3)cc2)c1 [Compound 22d, (E)-N-Hydroxy-4-methoxy-2-(biphenyl-4-yl)cinnamide], the “activation of p53 targets (Bax, Puma, p21, Gadd45b and LincRNA-p21)” value [1] is reported as “Variable levels of activation”, the “p53 target expression in normal CD34+ cells” value [2] is reported as “no or little change in p53 target expression” and the “anti-proliferative effects in A549 cells” value (A549 cells) is reported as “moderate anti-proliferative effects”. The “engraftment activity of normal HSCs” value [3] was “does not affect normal HSC engraftment; also recorded: no impact on short-term or long-term engraftment activity”.

Source: patent publication US11505523B2, “HDAC8 inhibitors for treating cancer” (City of Hope, priority 2013, dated 2022)
